Patent publication US9643930B2, “Substituted indazole derivatives as in vitro MAO-B inhibitors” (“NTZ LAB” LTD., priority 2013, dated 2017)
Read-outs that look alike come from different tables or passages of the source.

How the values were obtained:
rat MAO-B = biological target: T1, rat MAO-B (Rattus norvegicus, UniProt P19643); assay: Rat MAO-B assay (Amplex Red fluorescence, rat liver mitochondria pre-treated with clorgyline 30 nM); format: biochemical; conditions: rat liver mitochondria pre-treated with clorgyline 30 nM; read-out: rat MAO-B (rat liver mitochondria) IC50
T1 construct: from tissue; host or cells: rat liver mitochondria (male Sprague-Dawley rats)
T1 sequence (P19643 1-520): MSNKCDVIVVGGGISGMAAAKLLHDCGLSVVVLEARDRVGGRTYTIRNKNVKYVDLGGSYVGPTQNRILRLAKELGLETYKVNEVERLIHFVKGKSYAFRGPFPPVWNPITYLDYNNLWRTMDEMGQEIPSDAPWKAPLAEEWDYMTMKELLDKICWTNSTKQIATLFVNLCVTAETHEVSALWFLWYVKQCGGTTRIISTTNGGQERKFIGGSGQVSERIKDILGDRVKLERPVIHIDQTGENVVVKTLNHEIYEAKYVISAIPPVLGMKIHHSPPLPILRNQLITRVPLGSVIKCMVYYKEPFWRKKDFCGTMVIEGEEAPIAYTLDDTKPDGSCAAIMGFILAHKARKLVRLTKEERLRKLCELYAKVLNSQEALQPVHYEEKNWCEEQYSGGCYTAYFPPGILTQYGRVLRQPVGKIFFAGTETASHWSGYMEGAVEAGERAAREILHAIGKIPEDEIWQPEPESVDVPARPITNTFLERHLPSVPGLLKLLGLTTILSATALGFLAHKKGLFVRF
Protocol: (§1) Male Sprague-Dawley (Harlan Sprague Dawley, Dublin, Va., US) rats (250-300 g) were sacrificed under light anesthesia and their livers were dissected. […] After homogenization, the volume is adjusted to 100 mL with the same buffer. After a low speed centrifugation (10 min at 600 g; 4° C.), the supernatant is further centrifuged at 15,000 rpm for 5 min at +4° C. The resulting pellet was resuspended in 2.0 mL of a 50 mM sodium/phosphate buffer (pH 7.4) and stored at −80° C. in aliquots of 1.0 mL each until further use.
(§2) The Amplex® Red reagent was prepared as recommended in the kit from Invitrogen (A12214). […] Clorgyline (1.0 μM) from Sigma Aldrich (M3778) was used to determine non-MAO-A enzyme activity and concentration-response curves of clorgyline serve as positive control.

[1] = Storage stability (physicochemical properties, Table 1); conditions: specified storage temperature (room temperature)
[2] = Solubility in organic solvents and in water (physicochemical properties, Table 1); conditions: for solubility: water, aqueous buffer
human MAO-A = biological target: T2, human MAO-A (Homo sapiens, UniProt P21397); assay: Human MAO-A assay (recombinant enzyme, Amplex Red fluorescence); conditions: for inhibition at 10 µM: read-out: human MAO-A % inhibition at 10 μM
T2 sequence (P21397 1-527): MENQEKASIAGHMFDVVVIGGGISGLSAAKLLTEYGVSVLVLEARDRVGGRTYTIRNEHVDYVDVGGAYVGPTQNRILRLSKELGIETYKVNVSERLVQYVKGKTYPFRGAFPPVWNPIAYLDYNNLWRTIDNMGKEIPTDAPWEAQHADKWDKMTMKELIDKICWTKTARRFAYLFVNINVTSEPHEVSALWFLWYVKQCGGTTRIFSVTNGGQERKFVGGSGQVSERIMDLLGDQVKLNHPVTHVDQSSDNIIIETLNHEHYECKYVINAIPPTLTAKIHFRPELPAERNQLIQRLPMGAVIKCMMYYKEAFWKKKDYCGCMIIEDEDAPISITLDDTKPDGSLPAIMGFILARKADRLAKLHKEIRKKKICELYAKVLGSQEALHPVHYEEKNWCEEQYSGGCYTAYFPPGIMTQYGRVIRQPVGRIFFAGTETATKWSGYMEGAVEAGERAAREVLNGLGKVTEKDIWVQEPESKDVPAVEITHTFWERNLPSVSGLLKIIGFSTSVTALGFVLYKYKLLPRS

human MAO-B [3] = biological target: T3, human MAO-B (Homo sapiens, UniProt P27338); assay: Assay for mode of MAO-B inhibition (substrate-dependent kinetics, Lineweaver-Burk plots); format: biochemical; set-up: purchased Sigma-Aldrich M7441; host or cells: baculovirus-infected insect cells (microsomal product); conditions: p-tyramine 0.05-[…]; inhibitor 0.1-10 nM; n=2
T3 sequence (P27338 1-520): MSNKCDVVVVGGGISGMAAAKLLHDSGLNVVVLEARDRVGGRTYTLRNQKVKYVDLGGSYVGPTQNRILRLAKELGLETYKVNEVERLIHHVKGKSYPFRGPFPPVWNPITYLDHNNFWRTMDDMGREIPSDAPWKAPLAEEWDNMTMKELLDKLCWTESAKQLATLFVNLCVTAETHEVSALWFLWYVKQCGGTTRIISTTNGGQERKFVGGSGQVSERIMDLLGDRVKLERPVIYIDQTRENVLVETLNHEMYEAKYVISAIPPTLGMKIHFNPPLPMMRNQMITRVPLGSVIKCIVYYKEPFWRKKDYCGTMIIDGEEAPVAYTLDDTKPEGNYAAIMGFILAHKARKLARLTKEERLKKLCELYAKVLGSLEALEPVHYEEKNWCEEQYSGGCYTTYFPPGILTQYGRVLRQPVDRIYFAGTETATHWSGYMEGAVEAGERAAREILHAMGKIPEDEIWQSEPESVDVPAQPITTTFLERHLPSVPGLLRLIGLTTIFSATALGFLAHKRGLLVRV
Protocol: The type of MAO-B enzyme inhibition was determined by Michaelis-Menten kinetic experiments and sets of Lineweaver-Burk plots were generated. The reciprocal MAO-B activity was plotted against the reciprocal substrate concentration (n=2). […] The enzymatic reactions and measurements were performed using human MAO-B assay conditions, applied for the determination of IC50 values. The experiment was performed in duplicate.

human MAO-B [4] = biological target: T3, human MAO-B; assay: MAO-B reactivation experiment (time-dependent inhibition, reversibility); conditions: compound at IC80; p-tyramine raised from 10 μM to 1.0 mM; monitored 5 hours
rat MAO-A = biological target: T4, rat MAO-A (Rattus norvegicus, UniProt P21396); assay: Rat MAO-A assay (Amplex Red fluorescence, rat liver mitochondria pre-treated with deprenyl); format: biochemical; conditions: for inhibition at 10 µM: read-out: rat MAO-A (rat liver mitochondria) % inhibition at 10 μM
T4 construct: from tissue; host or cells: rat liver mitochondria (male Sprague-Dawley rats)
T4 sequence (P21396 1-526): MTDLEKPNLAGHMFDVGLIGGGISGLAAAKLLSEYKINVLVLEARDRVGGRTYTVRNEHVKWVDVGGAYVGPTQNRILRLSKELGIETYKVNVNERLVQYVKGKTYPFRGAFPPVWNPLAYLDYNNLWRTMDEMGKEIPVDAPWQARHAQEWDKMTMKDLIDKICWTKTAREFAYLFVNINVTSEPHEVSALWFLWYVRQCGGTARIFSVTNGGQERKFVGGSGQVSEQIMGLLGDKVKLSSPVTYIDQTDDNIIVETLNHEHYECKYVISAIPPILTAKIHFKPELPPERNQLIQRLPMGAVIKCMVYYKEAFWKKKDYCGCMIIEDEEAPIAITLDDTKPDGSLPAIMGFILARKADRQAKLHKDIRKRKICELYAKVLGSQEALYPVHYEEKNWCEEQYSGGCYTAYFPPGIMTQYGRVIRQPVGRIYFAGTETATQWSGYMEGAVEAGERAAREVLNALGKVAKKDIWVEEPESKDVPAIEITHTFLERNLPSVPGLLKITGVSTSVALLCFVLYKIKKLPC
Protocol: as §1, §2

human MAO-B [5] = biological target: T3, human MAO-B; assay: Human MAO-B assay (recombinant enzyme, Amplex Red fluorescence); format: biochemical; set-up: purchased Sigma-Aldrich M7441; host or cells: baculovirus-infected insect cells (microsomal product); conditions: p-tyramine 150 μM
[6] = rat liver mitochondria, substrate p-tyramine, read-out: rat MAO-A (rat liver mitochondria) IC50

Row | SMILES | IC50 (rat MAO-B) [nM] | Stability [1] | Solubility in water ([2]; hot water) | Solubilty inorganic solvents ([2]; in DMSO, DMF, MeOH, EtOH, i-PrOH, n-BuOH, t-BuOH, acetonitrile (Soluble)) | Solubilty inorganic solvents ([2]; in petroleum ether, Et2O and n-hexane (Insoluble)) | solubility ([2]; at 22.5° C., pH 7.4) [µg/mL] | solubility ([2]; at 90° C., pH 7.4, pH 1.0) [µg/mL] | inhibition at 10 µM (human MAO-A) [%] | mode of MAO-B inhibition (Lineweaver-Burk plots) (human MAO-B [3]) | reversibility of MAO-B inhibition (enzyme reactivation after raising substrate) (human MAO-B [4]) | IC50 (rat MAO-A) [nM] | inhibition at 10 µM (rat MAO-A; rat liver mitochondria) [%] | IC50 (human MAO-A) [nM] | IC50 (rat MAO-A; [6]) [nM] | melting point [°C] | IC50 (human MAO-B [5]) [nM]
1 | Cn1ncc2cc(C(=O)Nc3ccc(Cl)c(Cl)c3)ccc21 [Example 13] | 1.32 ± 0.09 | Stable under specified storage temperature (room | Very slightly soluble in hot water | Soluble (0.01-0.03 mL per 1.0 mg) in DMSO, DMF, | Insoluble (>10 mL per 1.0 mg) in petroleum ether, | < 0.01 | < 0.035 | 37 | linear and intersected at the y-axis with the plot for the uninhibited enzyme | reversible MAO-B inhibitors | > 10000 | 42 |  |  |  | 
2 | O=C(Nc1ccc(O)c(Cl)c1)c1ccc2[nH]ncc2c1 [Example 5, N-(3-chloro-4-hydroxyphenyl)-1H-indazole-5-carboxamide] | 941 ± 51 |  |  |  |  |  |  | 33 |  |  |  | 60 | > 10000 | < 10000 | 272.2 to 273.4 | 123 ± 16
3 | C[C@H](NCc1ccc(OCc2cccc(F)c2)cc1)C(N)=O [safinamide, reference compound] |  |  |  |  |  |  |  |  |  | The same result was observed |  |  |  |  |  | 
4 | COc1ccc(NC(=O)c2ccc3[nH]ncc3c2)cc1Cl [Example 3, N-(3-chloro-4-methoxy)-1H-indazole-5-carboxamide] | 21.9 ± 3.4 |  |  |  |  |  |  | 30 |  |  |  | 13 | > 10000 | > 10000 | 276.2 to 277.8 | 3.42 ± 0.28
